The results in this text go back to ChEMBL document CHEMBL2346578, “Substituted 1,6-diphenylnaphthalenes as FtsZ-targeting antibacterial agents” (2013).

Active and inactive are the calls of the source. The calls are words filed in the database; no cut-off is given here.

The target in this assay is Tubulin beta chain (Sus scrofa) (UniProt P02554). Kind of assay: Stimulation of porcine MAP-rich beta-tubulin polymerization at 25 ug/mL by light scattering assay.
Chain of Tubulin beta chain (Sus scrofa) (P02554 whole entry): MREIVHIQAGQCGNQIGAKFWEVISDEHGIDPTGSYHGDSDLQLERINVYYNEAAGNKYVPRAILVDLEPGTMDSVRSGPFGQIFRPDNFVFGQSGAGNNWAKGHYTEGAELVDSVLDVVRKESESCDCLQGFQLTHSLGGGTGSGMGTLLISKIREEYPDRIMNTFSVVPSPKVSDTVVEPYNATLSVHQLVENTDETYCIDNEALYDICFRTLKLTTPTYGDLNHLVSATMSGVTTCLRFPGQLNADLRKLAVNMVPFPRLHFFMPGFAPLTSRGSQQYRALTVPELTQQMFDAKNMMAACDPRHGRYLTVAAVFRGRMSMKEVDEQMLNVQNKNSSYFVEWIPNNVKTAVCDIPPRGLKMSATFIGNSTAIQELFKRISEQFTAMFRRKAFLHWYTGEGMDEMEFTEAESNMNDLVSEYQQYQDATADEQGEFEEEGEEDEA

Take `CC(=O)O[C@H]1C(=O)[C@@]2(C)[C@H]([C@H](OC(=O)c3ccccc3)[C@]3(O)C[C@H](OC(=O)[C@H](O)[C@@H](NC(=O)c4ccccc4)c4ccccc4)C(C)=C1C3(C)C)[C@]1(OC(C)=O)CO[C@@H]1C[C@@H]2O`: the result was Active.
